Measurements as given in patent US8008299B2, “Urotensin II receptor antagonists” (Janssen Pharmaceutica, N.V., priority 2007, dated 2011).
pIC50, pKi: −log10 of the molar value. Like-named read-outs stand apart in the source and are kept apart here.

How the values were obtained:
[1] = target: T1, UT receptors in HSMM (Human Skeletal Muscle Myoblasts) (Homo sapiens, UniProt Q9UKP6); assay: Human Radioligand Binding Assay ((^125I)-U-II binding to intact HSMM)
T1 sequence (Q9UKP6 1-389): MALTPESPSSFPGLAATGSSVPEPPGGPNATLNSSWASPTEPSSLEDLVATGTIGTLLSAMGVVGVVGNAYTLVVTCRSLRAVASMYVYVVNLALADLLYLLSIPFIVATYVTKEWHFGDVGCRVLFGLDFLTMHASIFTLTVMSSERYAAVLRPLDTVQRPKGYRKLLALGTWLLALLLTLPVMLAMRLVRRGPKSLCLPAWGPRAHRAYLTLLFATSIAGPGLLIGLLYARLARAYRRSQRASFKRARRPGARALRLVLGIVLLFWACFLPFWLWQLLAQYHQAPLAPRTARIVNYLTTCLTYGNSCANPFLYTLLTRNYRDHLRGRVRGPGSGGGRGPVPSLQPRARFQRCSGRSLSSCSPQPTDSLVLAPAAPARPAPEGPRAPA

[2] = target: T2, Human UII (U-II receptor) in 6D9 human rhabdomyosarcoma cells (Homo sapiens, UniProt Q9UKP6); assay: Human UII Calcium Mobilization Assay; assay type: cell-based; details: 6D9 human rhabdomyosarcoma cells, FLIPR TETRA, average; read-out: Human UII Ca+ Mobilization Average IC50
T2 construct: 6D9: isolated by dilution subcloning of RMS13 cells, ATCC® Number: CRL-2061; host or cells: 6D9 human rhabdomyosarcoma cells (subclone of RMS13)
T2 sequence (Q9UKP6 1-389): T1 sequence (Q9UKP6 1-389)
Description: 25 μL of dye solution was added to the wells such that the final liquid volume before agonist/antagonist treatment was 50 μL for all assays. The cell plates were incubated at 37° C. for 45 minutes and the fluorescence intensity was measured on a Fluorometric Imaging Plate Reader (FLIPR^TETRA, Molecular Devices, Sunnyvale, Calif.).
Antagonist and agonist U-II were added at room temperature on the FLIPR^TETRA, and the fluorescence intensity before and after addition was measured over a period of 4 minutes. The dye incubation time and temperature as well as instrument setting was adjusted so the fluorescence intensity could be compared between plates on the same day. EC50 and IC50 were analyzed using GraphPad Prism 4 software (GraphPad Software Inc., San Diego, Calif.).
For assays, U-II agonist, U-II antagonist and urantide were diluted with HBSS/HEPES containing 0.01% FBS.
Test compounds were dissolved in DMSO at 10 mM concentration. The serial dilutions were carried out in HBSS/HEPES. The highest final DMSO concentration was at 0.1%.

[3] = target: T3, rat GPR14 (U-II receptor) (Rattus norvegicus, UniProt P49684); assay: Rat UII Calcium Mobilization FLIPR Assay; assay type: cell-based; details: CHO cells transfected with rat GPR14; antagonist activity after 5 min incubation vs agonist (Ac)-CFWK(2-NaI)C-NH2 at 1 nM
T3 construct: expressed in transfected cells
T3 sequence (P49684 1-386): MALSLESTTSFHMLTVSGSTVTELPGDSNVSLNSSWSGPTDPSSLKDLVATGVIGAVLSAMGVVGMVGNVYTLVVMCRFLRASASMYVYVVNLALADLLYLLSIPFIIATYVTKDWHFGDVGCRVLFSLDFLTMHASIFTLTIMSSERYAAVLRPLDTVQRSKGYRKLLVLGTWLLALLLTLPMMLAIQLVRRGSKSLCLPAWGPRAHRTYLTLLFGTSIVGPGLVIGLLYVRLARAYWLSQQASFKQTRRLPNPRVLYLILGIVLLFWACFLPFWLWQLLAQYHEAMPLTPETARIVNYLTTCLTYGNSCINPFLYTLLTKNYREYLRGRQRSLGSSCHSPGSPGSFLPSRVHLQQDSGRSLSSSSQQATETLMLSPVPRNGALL
Text: To derive these cells, the complete coding sequence of rat U-II (Genbank Accession No. U32673) was amplified by nested PCR from rat heart marathon-Ready cDNA. […] The PCR products were cloned into pcDNA3 (Invitrogen) digested with EcoR I and Xba I. Clones containing rat U-II receptor were verified by complete sequencing of the U-II receptor insert to ensure a lack of PCR-introduced errors. The constructed vector was transfected into CHO cells by using lipofectamine (GIBCO BRL). CHO cells with high expression of rat U-II receptor were selected and established as stable cell lines by using G418. CHO cells were seeded at 25,000 cells per well into 96-well, black-wall, clear-bottom microtiter plates 24 h before assay. Cells in culture media (DMEM/F12 containing 15 mM HEPES, L-glutamine, pyridoxine hydrochloride; 10% fetal bovine serum; 1 mg/mL G418 sulfate; antibiotic-antimycotic; pH 7.4) were loaded with proprietary dye, from the FLIPR Calcium Assay Kit (Molecular Devices), prepared in assay buffer (Hanks Balanced Salts Solution, 20 mM HEPES, 0.1% BSA, 2.5 mM probenecid, pH 7.4), and incubated for 1 h at 37° C. Calcium mobilization determinations were performed at room temperature (23° C.).

Compound	pKi ([1]; read-out: Human UII Average Binding Ki, intact HSMM, 0.150 nM (^125I)-U-II, 3 h, 25° C.)	pIC50 [2]	pIC50 [3]	pKi [1]
COc1ccc([C@@H](CCCN(C)S(=O)(=O)c2cccs2)N2Cc3c(cccc3N3CCNCC3)C2=O)cc1OC [Cpd 30, thiophene-2-sulfonic acid [(4R)-4-(3,4-dimethoxy-phenyl)-4-(1-oxo-4-piperazin-1-yl-1,3-dihydro-isoindol-2-yl)-butyl]-methyl-amide]	7.31	6.39	7.41	–
CCN1CCN(c2cccc3c2CN([C@H](CCCSc2cccc[n+]2[O-])c2ccc(OC)c(OC)c2)C3=O)CC1 [Cpd 31, {(4R)-4-(3,4-dimethoxy-phenyl)-4-[4-(4-ethyl-piperazin-1-yl)-1-oxo-1,3-dihydro-isoindol-2-yl]-butylsulfanyl}-pyridine 1-oxide]	–	6.22	7.96	6.87
CCN1CCN(c2cccc3c2CN([C@H](CCCn2ccnc2)c2ccc(OC)c(OC)c2)C3=O)CC1 [Cpd 32, 2-[(1R)-1-(3,4-dimethoxy-phenyl)-4-imidazol-1-yl-butyl]-4-(4-ethyl-piperazin-1-yl)-2,3-dihydro-isoindol-1-one]	–	5.69	7.35	6.80
COc1ccc([C@@H](CCCN(C)c2ccccc2)N2Cc3c(cccc3N3CCNCC3)C2=O)cc1OC [Cpd 33, 2-[(1R)-1-(3,4-dimethoxy-phenyl)-4-(methyl-phenyl-amino)-butyl]-4-piperazin-1-yl-2,3-dihydro-isoindol-1-one]	–	5.33	6.51	6.28
COc1ccc([C@@H](CCCOc2ccccc2)N2Cc3c(cccc3N3CCN(Cc4ccccc4)CC3)C2=O)cc1OC [Cpd 34, 4-(4-benzyl-piperazin-1-yl)-2-[(1R)-1-(3,4-dimethoxy-phenyl)-4-phenoxy-butyl]-2,3-dihydro-isoindol-1-one]	–	6.51	6.98	7.49
COc1ccc([C@@H](CCCn2ccnc2)N2Cc3c(cccc3N3CCNCC3)C2=O)cc1OC [Cpd 35, 2-[(1R)-1-(3,4-dimethoxy-phenyl)-4-imidazol-1-yl-butyl]-4-piperazin-1-yl-2,3-dihydro-isoindol-1-one]	–	< 5.00	5.72	5.96
COc1ccc([C@@H](CCCSc2ccccc2)N2Cc3c(cccc3N3CCNCC3)C2=O)cc1OC [Cpd 36, 2-[(1R)-1-(3,4-dimethoxy-phenyl)-4-phenylsulfanyl-butyl]-4-piperazin-1-yl-2,3-dihydro-isoindol-1-one]	–	5.94	7.72	6.91
COc1ccc([C@@H](CCCOc2ccccc2)N2Cc3c(cccc3N3CCNCC3)C2=O)cc1OC [Cpd 37, 2-[(1R)-1-(3,4-dimethoxy-phenyl)-4-phenoxy-butyl]-4-piperazin-1-yl-2,3-dihydro-isoindol-1-one]	–	6.35	7.85	7.30
CC[N+]1(C)CCN(c2cccc3c2CN([C@H](CCCN(Cc2ccccc2)Cc2ccccc2)c2ccc(OC)c(OC)c2)C3=O)CC1 [Cpd 38, 4-{2-[(1R)-4-dibenzylamino-1-(3,4-dimethoxy-phenyl)-butyl]-1-oxo-2,3-dihydro-1H-isoindol-4-yl}-1-ethyl-1-methyl-piperazin-1-ium]	–	5.55	6.73	< 6.52
CCN1CCN(c2cccc3c2CN([C@H](CCCN(C)S(=O)(=O)c2cn(C)c(C)n2)c2ccc(OC)c(OC)c2)C3=O)CC1 [Cpd 39, 1,2-dimethyl-1H-imidazole-4-sulfonic acid {(4R)-4-(3,4-dimethoxy-phenyl)-4-[4-(4-ethyl-piperazin-1-yl)-1-oxo-1,3-dihydro-isoindol-2-yl]-butyl}-methyl-amide]	–	6.01	6.86	6.79
CCN1CCN(c2cccc3c2CN([C@H](CCCNc2ccccc2)c2ccc(OC)c(OC)c2)C3=O)CC1 [Cpd 40, 2-[(1R)-1-(3,4-dimethoxy-phenyl)-4-phenylamino-butyl]-4-(4-ethyl-piperazin-1-yl)-2,3-dihydro-isoindol-1-one]	–	6.43	8.00	7.12
COc1ccc([C@@H](CCCOCc2ccccc2)N2Cc3c(cccc3N3CCNCC3)C2=O)cc1OC [Cpd 41, 2-[(1R)-4-benzyloxy-1-(3,4-dimethoxy-phenyl)-butyl]-4-piperazin-1-yl-2,3-dihydro-isoindol-1-one]	–	6.35	7.66	6.78
CCN1CCC(C(c2ccc(OC)c(OC)c2)N2Cc3c(cccc3N3CCN(CC)CC3)C2=O)CC1 (stereo not drawn) [Cpd 42, 2-[(3,4-dimethoxy-phenyl)-(1-ethyl-piperidin-4-yl)-methyl]-4-(4-ethyl-piperazin-1-yl)-2,3-dihydro-isoindol-1-one]	–	< 5.00	5.44	< 6.52
CCN1CCN(c2cccc3c2CN(C(c2ccc(OC)c(OC)c2)C2CCN(Cc4ccccc4)CC2)C3=O)CC1 (stereo not drawn) [Cpd 43, 2-[(1-benzyl-piperidin-4-yl)-(3,4-dimethoxy-phenyl)-methyl]-4-(4-ethyl-piperazin-1-yl)-2,3-dihydro-isoindol-1-one]	–	5.57	6.76	< 6.52
CCN1CCN(c2cccc3c2CN(C(c2ccc(OC)c(OC)c2)C2CCN(S(=O)(=O)c4cn(C)c(C)n4)CC2)C3=O)CC1 (stereo not drawn) [Cpd 44, 2-{(3,4-dimethoxy-phenyl)-[1-(1,2-dimethyl-1H-imidazole-4-sulfonyl)-piperidin-4-yl]-methyl}-4-(4-ethyl-piperazin-1-yl)-2,3-dihydro-isoindol-1-one]	–	5.51	5.13	< 6.52
CCN1CCN(c2cccc3c2CN(C(c2ccc(OC)c(OC)c2)C2CCN(S(=O)(=O)c4cccs4)CC2)C3=O)CC1 (stereo not drawn) [Cpd 45, 2-{(3,4-dimethoxy-phenyl)-[1-(thiophene-2-sulfonyl)-piperidin-4-yl]-methyl}-4-(4-ethyl-piperazin-1-yl)-2,3-dihydro-isoindol-1-one]	–	5.48	6.33	< 6.52
CCN1CCN(c2cccc3c2CN([C@H](CCCOCc2c(F)cccc2F)c2ccc(OC)c(OC)c2)C3=O)CC1 [Cpd 46, 2-[(1R)-4-(2,6-difluoro-benzyloxy)-1-(3,4-dimethoxy-phenyl)-butyl]-4-(4-ethyl-piperazin-1-yl)-2,3-dihydro-isoindol-1-one]	–	< 5.00	5.11	< 6.52
CCN1CCN(c2cccc3c2CN([C@H](CCCOCc2ccccc2Cl)c2ccc(OC)c(OC)c2)C3=O)CC1 [Cpd 47, 2-[(1R)-4-(2-chloro-benzyloxy)-1-(3,4-dimethoxy-phenyl)-butyl]-4-(4-ethyl-piperazin-1-yl)-2,3-dihydro-isoindol-1-one]	–	5.21	5.89	< 6.52
